Source: publication PMC4931907 (eLife, 2016)
Read-outs that look alike come from different tables or passages of the source.

Test system: histone acetylation (H2BK12/K15) in HEK293T cells
Experiment: Site-specific histone acetylation in HEK293T cells by Western blot
Format: cell-based
Conditions: for Deacetylation of specific histone residues: Western blot; for IC50: Homo sapiens, HEK-293T
Description: To determine whether salicylate induces histone deacetylation directly in cells, we treated HEK293T cells with various concentrations of salicylate.
Figure 2. Salicylate inhibits specific lysine acetylation of histone and nonhistone proteins independently of AMPK activation. […] HEK293T cells were treated with the indicated concentrations of sodium salicylate for 24 hr. Site-specific histone acetylation was detected by Western blot with specific antisera. Bands were quantified with Image J software. Acetylation was normalized to that of untreated cells and plotted. Representative results are shown in Supplementary Figure 1. Experiments are repeated and error bars indicate SEM. […] HEK293T cells were transfected with increasing amounts of expression vectors for p300 or F1504A or PCAF, treated with sodium salicylate for 24 hr, and analyzed by Western blotting analysis with an antiserum specific for acetyl histone H2BK12/K15. Bands were quantified with Image J software. Acetylation was normalized to that of untreated control. Average levels of relative acetylation are plotted and error bars indicate SEM. Representative results are shown in Supplementary Figure 2—figure supplement 2. (E) IC50 values generated from all curves in panel (B) and (D) were plotted against the amount of plasmid transfected (p300 or PCAF). (F), (G) HEK293 T cells were transfected with expression vectors for p300 and NF-κB p65 (F) or p53 (G), treated with salicylate for 24 hr, and analyzed by Western blot with specific antibodies against acetyl NF-κBK310 (F) or acetyl p53K382 and acetyl H2BK12/15 (G). Compound C (10 μM), a specific AMPK inhibitor, was added to salicylate-treated cells for 24 hr before Western blot (G). KR, p65 K310R mutant DOI: http://dx.doi.org/10.7554/eLife.11156.005 Figure 2—figure supplement 1. Salicylate induces histone deacetylation in HEK293T cells HEK293T cells were treated with sodium salicylate as indicated for 24 hr, immediately lysed in Laemmli buffer, and then subjected to western blot analysis with the indicated antibodies. Histones H2A, H2B, H3 and H4 were used as input loading controls. Experiments are repeated five times and representative data are shown. DOI: http://dx.doi.org/10.7554/eLife.11156.006 [drawing 2] Figure 2—figure supplement 2. Salicylate-induced deacetylation of histone H2B can be rescued by overexpression of p300, but not PCAF, in a dose-dependent manner. (A) Overexpression of p300 but not PCAF specifically leads to hyperacetylation of histone H2B. […] H2B acetylation was measured by western blot and the specified antibodies. (B) Overexpression of p300 but not PCAF rescued salicylate-induced H2B deacetylation in a dose-dependent manner. […] H2B acetylation was measured by Western Blot and the specified antibodies. […]

| Compound | Deacetylation of specific histone residues (HEK293T cells, 24 hr) | IC50 (24 h, read-out: IC50 for H2BK12/K15 inhibition in cells) | IC50 (HEK293T cells, 24 hr, read-out: IC50 for inhibition of H2B acetylation) |
| --- | --- | --- | --- |
| O=C(O)c1cc(-c2ccc(F)cc2F)ccc1O [diflunisal] | induced deacetylation of specific histone residues, H2AK5, K9, H2BK12/K15, H3K56 | 160 µM | – |
| O=C(O)c1ccccc1O [salicylate, salicylic acid] | deacetylation of H2AK5/K9, H2BK12/K15, and H3K56 in a dose-dependent manner | – | 4800 µM |
